Results: US8916567B2, “Certain crystalline hydrates, pharmaceutical compositions thereof and methods for preparation and use thereof” (Universal Technology Alliance, Inc., priority 2009, dated 2014)
≈ marks a conversion by molar mass, not a printed value.

Assays:
Format in all cases: cell-based
Staphylococcus aureus = assay: Minimum inhibitory concentration (MIC) in vitro, agar dilution method, quality control strain; settings: Staphylococcus aureus, ATCC27853
Excerpt: (§1) Hydrates Samples: • The 1/2 hydrates prepared according to Example 2; • Content (purity % wt): 99.0%; • The 1/12 hydrates prepared according to Example 253; • Content (purity % wt): 98.9%; • The 2/7 hydrates prepared according to Example 106; • Content (purity % wt): 98.8%; • The 2/5 hydrates prepared according to Example 162; • Content (purity % wt): 99.0%; • The 3/4 hydrates prepared according to Example 337; • Content (purity % wt): 98.8%; • Preparation: dissolved in DMSO, and further diluted with sterile distilled water to desired concentration. • The hydrates samples were supplied by Sichuan Beilike Biotechnology LTD.
(§2) Anhydrous Sample: • The anhydrous compounds prepared according to Example 1. • Content (purity % wt): 98.6%; • Preparation: dissolved in DMSO, and further diluted with sterile distilled water to desired concentration; • The anhydrous sample was supplied by Sichuan Beilike Biotechnology LTD.
(§3) Control Samples • Vancomycin: provided by Sichuan Beilike Biotechnology LTD, purchased from Eli Lilly Japan K.K. • Lot No.: WM16151 (production date: Apr. 10, 2007, expiration date: Apr. 9, 2009). • Specification: 500 mg/bottle; solubility (physicochemical properties): soluble in water. • Linezolid (LZ): provided by Sichuan Beilike Biotechnology LTD.
(§4) Bacteria Strains • Clinically isolated strains: clinically isolated bacterial pathogens collected in Sichuan and Beijing areas from March 2007 to May 2008. • Species include: Staphylococcus aureus MRSA, Staphylococcus aureus MSSA, S. epidermidis MRSE, S. epidermidis MSSE, E. feacalis, and E. feacium, a total of 51 strains. • Quality control strains: Staphylococcus aureus […] strain kept in Sichuan Industrial Institute of Antibiotics, purchased from the medical testing center of the Ministry of Health, China.
(§5) Experimental Method: • Measurement of the minimum inhibitory concentration (MIC) in vitro: • The minimum inhibitory concentration (MIC) of each test sample against test strains was measured by using the agar dilution method recommended by the U.S. National Committee for Clinical Laboratory Standards (CLSI/NCCIs).
(§6) Based on the CLSI/NCCL's testing standard with respect to vancomycin and linezolid (see Table 6), the minimum inhibitory concentration (MIC) values of every strain were reported, and the MIC50 (the concentration that inhibits 50% of the different strains of bacteria), MIC90 (the concentration that inhibits 90% of the different strains of bacteria), and MICrange (the range of the MIC value of the tested strains) were observed.

E. feacium = assay: Minimum inhibitory concentration (MIC) in vitro, agar dilution method
Excerpt: as §1, §2, §3, §4, §5, §6

[1] = system: Staphylococcus aureus MRSA; assay: as above
Excerpt: as §1, §2, §3, §4, §5, §6

[2] = system: Staphylococcus aureus MSSA; assay: as above
Excerpt: as §1, §2, §3, §4, §5, §6

S. epidermidis MSSE = assay: as above
Excerpt: as §1, §2, §3, §4, §5, §6

E. feacalis = assay: as above
Excerpt: as §1, §2, §3, §4, §5, §6

S. epidermidis MRSE = assay: as above
Excerpt: as §1, §2, §3, §4, §5, §6

[3] = Staphylococcus epidermidis, MRSE

`CN[C@H](CC(C)C)C(=O)N[C@H]1C(=O)N[C@@H](CC(N)=O)C(=O)N[C@H]2C(=O)N[C@H]3C(=O)N[C@H](C(=O)N[C@H](C(=O)O)c4cc(O)cc(O)c4-c4cc3ccc4O)[C@H](O)c3ccc(c(Cl)c3)Oc3cc2cc(c3O[C@@H]2O[C@H](CO)[C@@H](O)[C@H](O)[C@H]2O[C@H]2C[C@](C)(N)[C@H](O)[C@H](C)O2)Oc2ccc(cc2Cl)[C@H]1O` [Vancomycin, reference compound] showed an MIC (Staphylococcus aureus) of 1 µg/mL (≈ 0.69 µM), an MIC50 (E. feacium) of 4 µg/mL (≈ 2.76 µM) and an MIC90 (E. feacium) of 8 µg/mL (≈ 5.52 µM). For the same compound, the MICrange (E. feacium; E. feacium (5 strains), clinically isolated) was 2 to 8 µg/mL, the MIC (E. feacium; strain Efm 98 (Table 8 No. 21)) was 4 µg/mL (≈ 2.76 µM) and the MIC (E. feacium; strain Efm 171 (Table 8 No. 25)) was 8 µg/mL (≈ 5.52 µM). For the same compound, the MIC (E. feacium; strain Efm 197 (Table 8 No. 22)) was 4 µg/mL (≈ 2.76 µM), the MIC (E. feacium; strain Efm N3 (Table 8 No. 23)) was 2 µg/mL (≈ 1.38 µM) and the MIC (E. feacium; strain Efm N4 (Table 8 No. 24)) was 8 µg/mL (≈ 5.52 µM). For the same compound, the MICrange ([1]; S. MRSA (10 strains), clinically isolated) was 0.5 to 1 µg/mL, the MIC50 ([1]; Staphylococcus aureus, MRSA) was 1 µg/mL (≈ 0.69 µM) and the MIC90 ([1]; Staphylococcus aureus, MRSA) was 1 µg/mL (≈ 0.69 µM). The MIC ([1]; Staphylococcus aureus, MRSA, strain S. MRSA 29 (Table 7 No. 15)) was 0.5 µg/mL (≈ 0.345 µM), the MIC ([1]; Staphylococcus aureus, MRSA, strain S. MRSA 101 (Table 7 No. 14)) was 0.5 µg/mL (≈ 0.345 µM) and the MIC ([1]; Staphylococcus aureus, MRSA, strain S. MRSA 201 (Table 7 No. 13)) was 1 µg/mL (≈ 0.69 µM). It also gave an MIC ([1]; Staphylococcus aureus, MRSA, strain S. MRSA B27 (Table 7 No. 21)) of 1 µg/mL (≈ 0.69 µM), an MIC ([1]; Staphylococcus aureus, MRSA, strain S. MRSA B105 (Table 7 No. 17)) of 1 µg/mL (≈ 0.69 µM) and an MIC ([1]; Staphylococcus aureus, MRSA, strain S. MRSA B143 (Table 7 No. 19)) of 0.5 µg/mL (≈ 0.345 µM). For the same compound, the MIC ([1]; Staphylococcus aureus, MRSA, strain S. MRSA B151 (Table 7 No. 20)) was 1 µg/mL (≈ 0.69 µM), the MIC ([1]; Staphylococcus aureus, MRSA, strain S. MRSA B164 (Table 7 No. 16)) was 1 µg/mL (≈ 0.69 µM) and the MIC ([1]; Staphylococcus aureus, MRSA, strain S. MRSA B199 (Table 7 No. 22)) was 1 µg/mL (≈ 0.69 µM). The MIC ([1]; Staphylococcus aureus, MRSA, strain S. MRSA B617 (Table 7 No. 18)) was 5 µg/mL (≈ 3.45 µM), the MICrange ([2]; S. MSSA (11 strains), clinically isolated) was 0.5 to 1 µg/mL and the MIC50 ([2]; Staphylococcus aureus, MSSA) was 1 µg/mL (≈ 0.69 µM). It also gave an MIC90 ([2]; Staphylococcus aureus, MSSA) of 1 µg/mL (≈ 0.69 µM), an MIC ([2]; Staphylococcus aureus, MSSA, strain S. MSSA 123 (Table 7 No. 3)) of 0.5 µg/mL (≈ 0.345 µM) and an MIC ([2]; Staphylococcus aureus, MSSA, strain S. MSSA 187 (Table 7 No. 7)) of 0.5 µg/mL (≈ 0.345 µM). It also gave an MIC ([2]; Staphylococcus aureus, MSSA, strain S. MSSA 195 (Table 7 No. 6)) of 1 µg/mL (≈ 0.69 µM), an MIC ([2]; Staphylococcus aureus, MSSA, strain S. MSSA 195 (Table 7 No. 12)) of 1 µg/mL (≈ 0.69 µM) and an MIC ([2]; Staphylococcus aureus, MSSA, strain S. MSSA 201 (Table 7 No. 11)) of 1 µg/mL (≈ 0.69 µM). The MIC ([2]; Staphylococcus aureus, MSSA, strain S. MSSA 232 (Table 7 No. 2)) was 0.5 µg/mL (≈ 0.345 µM), the MIC ([2]; Staphylococcus aureus, MSSA, strain S. MSSA 275 (Table 7 No. 10)) was 1 µg/mL (≈ 0.69 µM) and the MIC ([2]; Staphylococcus aureus, MSSA, strain S. MSSA 466 (Table 7 No. 8)) was 0.5 µg/mL (≈ 0.345 µM). For the same compound, the MIC ([2]; Staphylococcus aureus, MSSA, strain S. MSSA 519 (Table 7 No. 9)) was 1 µg/mL (≈ 0.69 µM), the MIC ([2]; Staphylococcus aureus, MSSA, strain S. MSSA 520 (Table 7 No. 4)) was 0.5 µg/mL (≈ 0.345 µM) and the MIC ([2]; Staphylococcus aureus, MSSA, strain S. MSSA 580 (Table 7 No. 5)) was 1 µg/mL (≈ 0.69 µM). For the same compound, the MICrange (S. epidermidis MSSE; S. ep MSSE (10 strains), clinically isolated) was 0.06 to 1 µg/mL, the MIC50 (S. epidermidis MSSE; Staphylococcus epidermidis) was 0.5 µg/mL (≈ 0.345 µM) and the MIC90 (S. epidermidis MSSE; Staphylococcus epidermidis) was 1 µg/mL (≈ 0.69 µM). The MIC (S. epidermidis MSSE; Staphylococcus epidermidis, strain S. ep MSSE87 (Table 7 No. 23)) was 0.125 µg/mL (≈ 0.0863 µM), the MIC (S. epidermidis MSSE; Staphylococcus epidermidis, strain S. ep MSSE88 (Table 8 No. 5)) was 1 µg/mL (≈ 0.69 µM) and the MIC (S. epidermidis MSSE; Staphylococcus epidermidis, strain S. ep MSSE113 (Table 7 No. 24)) was 0.5 µg/mL (≈ 0.345 µM). The MIC (S. epidermidis MSSE; Staphylococcus epidermidis, strain S. ep MSSE116 (Table 7 No. 25)) was 0.125 µg/mL (≈ 0.0863 µM), the MIC (S. epidermidis MSSE; Staphylococcus epidermidis, strain S. ep MSSE118 (Table 8 No. 2)) was 1 µg/mL (≈ 0.69 µM) and the MIC (S. epidermidis MSSE; Staphylococcus epidermidis, strain S. ep MSSE119 (Table 7 No. 27)) was 0.125 µg/mL (≈ 0.0863 µM). The MIC (S. epidermidis MSSE; Staphylococcus epidermidis, strain S. ep MSSE137 (Table 8 No. 4)) was 1 µg/mL (≈ 0.69 µM), the MIC (S. epidermidis MSSE; Staphylococcus epidermidis, strain S. ep MSSE140 (Table 8 No. 3)) was 0.5 µg/mL (≈ 0.345 µM) and the MIC (S. epidermidis MSSE; Staphylococcus epidermidis, strain S. ep MSSE142 (Table 7 No. 26)) was 0.06 µg/mL (≈ 0.0414 µM). It also gave an MIC (S. epidermidis MSSE; Staphylococcus epidermidis, strain S. ep MSSE153 (Table 8 No. 1)) of 0.5 µg/mL (≈ 0.345 µM), an MIC50 (E. feacalis) of 1 µg/mL (≈ 0.69 µM) and an MIC90 (E. feacalis) of 2 µg/mL (≈ 1.38 µM). For the same compound, the MICrange (E. feacalis; E. feacalis (5 strains), clinically isolated) was 0.25 to 2 µg/mL, the MIC (E. feacalis; strain Efa 54 (Table 8 No. 20)) was 1 µg/mL (≈ 0.69 µM) and the MIC (E. feacalis; strain Efa 116 (Table 8 No. 16)) was 0.5 µg/mL (≈ 0.345 µM). It also gave an MIC (E. feacalis; strain Efa 907 (Table 8 No. 19)) of 1 µg/mL (≈ 0.69 µM), an MIC (E. feacalis; strain Efa 3006 (Table 8 No. 18)) of 2 µg/mL (≈ 1.38 µM) and an MIC (E. feacalis; strain Efa 33748 (Table 8 No. 17)) of 0.25 µg/mL (≈ 0.173 µM). For the same compound, the MICrange (S. epidermidis MRSE; S. ep MRSE (10 strains), clinically isolated) was 0.25 to 1 µg/mL, the MIC50 (S. epidermidis MRSE; [3]) was 1 µg/mL (≈ 0.69 µM) and the MIC90 (S. epidermidis MRSE; [3]) was 1 µg/mL (≈ 0.69 µM). It also gave an MIC (S. epidermidis MRSE; Staphylococcus epidermidis, MRSE, strain S. ep MRSE4 (Table 8 No. 9)) of 1 µg/mL (≈ 0.69 µM), an MIC (S. epidermidis MRSE; Staphylococcus epidermidis, MRSE, strain S. ep MRSE20 (Table 8 No. 6)) of 1 µg/mL (≈ 0.69 µM) and an MIC (S. epidermidis MRSE; Staphylococcus epidermidis, MRSE, strain S. ep MRSE87 (Table 8 No. 13)) of 0.25 µg/mL (≈ 0.173 µM). The MIC (S. epidermidis MRSE; Staphylococcus epidermidis, MRSE, strain S. ep MRSE90 (Table 8 No. 10)) was 1 µg/mL (≈ 0.69 µM), the MIC (S. epidermidis MRSE; Staphylococcus epidermidis, MRSE, strain S. ep MRSE101 (Table 8 No. 7)) was 1 µg/mL (≈ 0.69 µM) and the MIC (S. epidermidis MRSE; Staphylococcus epidermidis, MRSE, strain S. ep MRSE105 (Table 8 No. 11)) was 0.5 µg/mL (≈ 0.345 µM). For the same compound, the MIC (S. epidermidis MRSE; Staphylococcus epidermidis, MRSE, strain S. ep MRSE140 (Table 8 No. 14)) was 1 µg/mL (≈ 0.69 µM), the MIC (S. epidermidis MRSE; Staphylococcus epidermidis, MRSE, strain S. ep MRSE142 (Table 8 No. 12)) was 0.5 µg/mL (≈ 0.345 µM) and the MIC (S. epidermidis MRSE; Staphylococcus epidermidis, MRSE, strain S. ep MRSE210 (Table 8 No. 15)) was 1 µg/mL (≈ 0.69 µM). The MIC (S. epidermidis MRSE; Staphylococcus epidermidis, MRSE, strain S. ep MRSE211 (Table 8 No. 8)) was 0.5 µg/mL (≈ 0.345 µM).
